Assay results published in ChEMBL document CHEMBL6103579, “Antiproliferative activity of selenium-enriched coumarin derivatives on the SK-N-SH neuroblastoma cell line: Mechanistic insights” (Eur J Med Chem, 2025).
Active and inactive are the calls of the source. No cut-off for these calls is given here.

Legend:
[1] = Antiproliferative activity against human Embryonic lung cell assessed as inhibition of cell growth incubated for 60 hrs by CCK-8 method; type: toxicity, cell-based
[2] = tested on: Neuroblastoma cell; assay: Antiproliferative activity against human Neuroblastoma cell assessed as inhibition of cell growth incubated for 60 hrs by CCK-8 method; type: functional, cell-based
[3] = tested on: N2a; assay: Antitumor activity against mouse N2a cells implanted in female ICR mouse model assessed as reduction in tumor weight at 20 mg/kg, ip measured upto 8 days (reference value: 0.9 +/-0.26 g); type: functional; conditions: time <= 8 day
[4] = Toxicity in female ICR mouse assessed as change in organ coefficient of lung at 20 mg/kg, ip […] (reference value: 0.007+/-0.001); type: organism-based; conditions: in vivo
[5] = Toxicity in female ICR mouse assessed as change in organ coefficient of kidney at 20 mg/kg, ip […] (reference value: 0.007); type: organism-based; conditions: in vivo
[6] = Toxicity in female ICR mouse assessed as change in organ coefficient of heart at 20 mg/kg, ip […] (reference value: 0.006+/-0.002); type: organism-based; conditions: in vivo
[7] = Toxicity in female ICR mouse assessed as change in organ coefficient of liver at 20 mg/kg, ip […] (reference value: 0.058+/-0.010); type: organism-based; conditions: in vivo
[8] = tested on: N2a; assay: Antitumor activity against mouse N2a cells implanted in female ICR mouse model assessed as tumor inhibition rate at 20 mg/kg, ip measured upto 8 days relative to control; type: functional; design: scale not given: the % may be the effect or the level left; conditions: time <= 8 day
[9] = Toxicity in female ICR mouse assessed as change in organ coefficient of spleen at 20 mg/kg, ip […] (reference value: 0.006+/-0.002); type: organism-based; conditions: in vivo
[10] = tested on: N2a; assay: Antitumor activity against mouse N2a cells implanted in female ICR mouse model assessed as change in body weight at 20 mg/kg, ip measured upto 8 days (reference value: 25.54 +/-2.19 g); type: functional; conditions: time <= 8 day

## N#C[Se]CCCOc1ccc2cc(C(=O)N3N=C(c4ccc(Br)cc4)CC3c3ccc(F)cc3)c(=O)oc2c1 (stereo not given)
[1]
  Activity: Non-toxic
[2]
  Activity: Active

## O=P1(N(CCCl)CCCl)NCCCO1 (stereo not given) [CYCLOPHOSPHAMIDE ANHYDROUS]
[3]
  Activity: 0.32 g
[4]
  Activity: 0.007
[5]
  Activity: 0.007
[6]
  Activity: 0.006
[7]
  Activity: 0.059
[8]
  Activity: 64.6%
[9]
  Activity: 0.004
[10]
  Activity: 27.2 g
